Read-outs that look alike come from different tables or passages of the source.
Tests used:
mTOR = target: T1, mTOR (Homo sapiens, UniProt P42345); assay: mTOR kinobeads assay (competitive binding in Jurkat cell lysate, immunodetection); details: kinobeads assay
T1 construct: endogenous in cells; host or cells: Jurkat, clone E6-1 (ATCC TIB-152) cell lysate
Protocol: The compounds of the present invention as described were tested in the mTOR kinobeads assay as described below. […] After the incubation time the beads with captured proteins were separated from the lysate. Bound proteins were then eluted and the presence of mTOR, PI3K delta (PI3 Kd) and DNA-dependent protein kinase (DNA-PK) was detected and quantified using a specific antibody in a dot blot procedure and the Odyssey infrared detection system.
(§1) The kinobeads assay was performed as a competitive binding assay in which test compounds were added directly into a cell lysate. Test compounds (at various concentrations) and the affinity matrix (beads with immobilized phenylmorpholin-chromen ligand) were added to cell lysate aliquots and allowed to bind to the proteins contained in the lysate sample. After the incubation time the beads with captured proteins were separated from the lysate. Bound proteins were then eluted and the presence of kinases was detected and quantified using a multiplexed immunodetection format. Dose response curves for individual kinases were generated and IC50 values calculated.
(§2) 5×DP buffer: 250 mM Tris-HCl pH 7.4, 25% Glycerol, 7.5 mM MgCl2, 750 mM NaCl, 5 mM Na3VO4, filter the 5×-lysis buffer through 0.22 μm filter and store in aliquots at −80° C. The 5×DP buffer is diluted to 1×DP buffer containing 1 mM DTT and 25 mM NaF.
(§3) Stock solutions of test compounds were prepared in DMSO. In a 96 well plate 30 μl solution of diluted test compounds at 5 mM in DMSO were prepared. Starting with this solution a 1:3 dilution series (9 steps) was prepared. For control experiments (no test compound) a buffer containing 2% DMSO was used.
Jurkat cells were homogenized in a Potter S homogenizer in lysis buffer: 50 mM Tris-HCl, 0.8% NP40, 5% glycerol, 150 mM NaCl, 1.5 mM MgCl2, 25 mM NaF, 1 mM sodium vanadate, 1 mM DTT, pH 7.5. […] The material was dounced 10 times using a mechanized POTTER S, transferred to 50 ml falcon tubes, incubated for 30 minutes on ice and spun down for 10 min at 20,000 g at 4° C. (10,000 rpm in Sorvall SLA600, precooled). […] (33.500 rpm in Ti50.2, precooled). The supernatant was transferred again to a fresh 50 ml falcon tube, the protein concentration was determined by a Bradford assay (BioRad) and samples containing 50 mg of protein per aliquot were prepared. The samples were immediately used for experiments or frozen in liquid nitrogen and stored frozen at −80° C.
Jurkat cell lysate (approximately 50 mg protein per plate) was thawed in a water bath at room temperature and then kept on ice. […] The diluted cell lysate was stored on ice.
Plates were sealed and incubated for two hours in a cold room on a Thermoxer with shaking (750 rpm). Afterwards the plate was washed twice with 230 μl washing buffer (1×DP 0.4% NP40). […] The eluate was frozen quickly at −80° C. and stored at −20° C.
The kinases in the eluates were detected and quantified by spotting on Nitrocellulose membranes and using a first antibody directed against the kinase of interest and a fluorescently labeled secondary antibody (anti-mouse or anti-rabbit IRDye™ antibodies from Rockland).
Afterwards the membrane was washed three times for 10 minutes with PBS buffer containing 0.1% Tween 20 at room temperature. […] Afterwards the membrane was washed three times for 10 minutes each with 1×PBS buffer containing 0.1% Tween 20 at room temperature. Then the membrane was rinsed once with PBS buffer to remove residual Tween 20. The membrane was kept in PBS buffer at 4° C. and then scanned with the Odyssey instrument. Fluorescence signals were recorded and analysed according to the instructions of the manufacturer.

PI3K delta (PI3 Kd) = target: T2, PI3K delta (PI3 Kd) (Homo sapiens, UniProt O00329); assay: kinobeads assay, PI3K delta; assay type: binding; details: kinobeads assay, read-out: Inhibition values (IC50) PI3Kd
T2 construct: endogenous in cells; host or cells: Jurkat, clone E6-1 (ATCC TIB-152) cell lysate
Protocol: (§4) The compounds of the present invention as described were tested in the mTOR kinobeads assay as described below. Briefly, test compounds (at various concentrations) and the affinity matrix with the immobilized phenylmorpholin-chromen ligand (8-(4-aminomethyl-phenyl)-2-morpholin-4-yl-chromen-4-one) were added to cell lysate aliquots and allowed to bind to the proteins in the lysate sample. After the incubation time the beads with captured proteins were separated from the lysate. Bound proteins were then eluted and the presence of mTOR, PI3K delta (PI3 Kd) and DNA-dependent protein kinase (DNA-PK) was detected and quantified using a specific antibody in a dot blot procedure and the Odyssey infrared detection system. Kinobeads assays for PI3K (WO-A 2008/015013) and for kinase selectivity profiling (WO 2006/134056) have been previously described.
as §1
(§5) The affinity matrix (beads with immobilized phenylmorpholin-chromen ligand) was washed two times with 15 ml of 1×DP buffer containing 0.2% NP40 (IGEPAL® CA-630, Sigma, #13021) and then resupended in 5.5 ml of 1×DP buffer containing 0.2% NP40 (10% beads slurry).
as §2
as §3, with “used. Compound CZC00018052 served as a positive control (PI-103; Calbiochem catalogue number 528100).” for “used.”
(§6) Jurkat cells (ATCC catalogue number TIB-152 Jurkat, clone E6-1) were grown in 1 liter Spinner flasks (Integra Biosciences, #182101) in suspension in RPMI 1640 medium (Invitrogen, #21875-034) supplemented with 10% Fetal Bovine Serum (Invitrogen) at a density between 0.15×10^6 and 1.2×10^6 cells/ml. Cells were harvested by centrifugation, washed once with 1×PBS buffer (Invitrogen, #14190-094) and cell pellets were frozen in liquid nitrogen and subsequently stored at −80° C.
(§7) Jurkat cells were homogenized in a Potter S homogenizer in lysis buffer: 50 mM Tris-HCl, 0.8% NP40, 5% glycerol, 150 mM NaCl, 1.5 mM MgCl2, 25 mM NaF, 1 mM sodium vanadate, 1 mM DTT, pH 7.5. One complete EDTA-free tablet (protease inhibitor cocktail, Roche Diagnostics, 1873580) per 25 ml buffer was added. The material was dounced 10 times using a mechanized POTTER S, transferred to 50 ml falcon tubes, incubated for 30 minutes on ice and spun down for 10 min at 20,000 g at 4° C. (10,000 rpm in Sorvall SLA600, precooled). The supernatant was transferred to an ultracentrifuge (UZ)-polycarbonate tube (Beckmann, 355654) and spun for 1 hour at 100.000 g at 4° C. (33.500 rpm in Ti50.2, precooled). The supernatant was transferred again to a fresh 50 ml falcon tube, the protein concentration was determined by a Bradford assay (BioRad) and samples containing 50 mg of protein per aliquot were prepared. The samples were immediately used for experiments or frozen in liquid nitrogen and stored frozen at −80° C. […]

[1] = target: T3, DNA-dependent protein kinase (DNA-PK) (Homo sapiens, UniProt P78527); assay: kinobeads assay, DNA-PK; assay type: binding; details: kinobeads assay
T3 construct: endogenous in cells; host or cells: Jurkat, clone E6-1 (ATCC TIB-152) cell lysate
Protocol: as §4, §1, §5, §2
as §3, with “used. Compound CZC00018052 served as a positive control (PI-103; Calbiochem catalogue number 528100).” for “used.”
as §6, §7

[2] = Table 4, read-out: Inhibition values (IC50) mTor
[3] = Table 6, read-out: Inhibition values (IC50) mTOR
[4] = Table 4, read-out: Inhibition values (IC50) DNA-PK
[5] = Table 6, read-out: Inhibition values (IC50) DNAPK

T3 sequence (P78527 whole entry): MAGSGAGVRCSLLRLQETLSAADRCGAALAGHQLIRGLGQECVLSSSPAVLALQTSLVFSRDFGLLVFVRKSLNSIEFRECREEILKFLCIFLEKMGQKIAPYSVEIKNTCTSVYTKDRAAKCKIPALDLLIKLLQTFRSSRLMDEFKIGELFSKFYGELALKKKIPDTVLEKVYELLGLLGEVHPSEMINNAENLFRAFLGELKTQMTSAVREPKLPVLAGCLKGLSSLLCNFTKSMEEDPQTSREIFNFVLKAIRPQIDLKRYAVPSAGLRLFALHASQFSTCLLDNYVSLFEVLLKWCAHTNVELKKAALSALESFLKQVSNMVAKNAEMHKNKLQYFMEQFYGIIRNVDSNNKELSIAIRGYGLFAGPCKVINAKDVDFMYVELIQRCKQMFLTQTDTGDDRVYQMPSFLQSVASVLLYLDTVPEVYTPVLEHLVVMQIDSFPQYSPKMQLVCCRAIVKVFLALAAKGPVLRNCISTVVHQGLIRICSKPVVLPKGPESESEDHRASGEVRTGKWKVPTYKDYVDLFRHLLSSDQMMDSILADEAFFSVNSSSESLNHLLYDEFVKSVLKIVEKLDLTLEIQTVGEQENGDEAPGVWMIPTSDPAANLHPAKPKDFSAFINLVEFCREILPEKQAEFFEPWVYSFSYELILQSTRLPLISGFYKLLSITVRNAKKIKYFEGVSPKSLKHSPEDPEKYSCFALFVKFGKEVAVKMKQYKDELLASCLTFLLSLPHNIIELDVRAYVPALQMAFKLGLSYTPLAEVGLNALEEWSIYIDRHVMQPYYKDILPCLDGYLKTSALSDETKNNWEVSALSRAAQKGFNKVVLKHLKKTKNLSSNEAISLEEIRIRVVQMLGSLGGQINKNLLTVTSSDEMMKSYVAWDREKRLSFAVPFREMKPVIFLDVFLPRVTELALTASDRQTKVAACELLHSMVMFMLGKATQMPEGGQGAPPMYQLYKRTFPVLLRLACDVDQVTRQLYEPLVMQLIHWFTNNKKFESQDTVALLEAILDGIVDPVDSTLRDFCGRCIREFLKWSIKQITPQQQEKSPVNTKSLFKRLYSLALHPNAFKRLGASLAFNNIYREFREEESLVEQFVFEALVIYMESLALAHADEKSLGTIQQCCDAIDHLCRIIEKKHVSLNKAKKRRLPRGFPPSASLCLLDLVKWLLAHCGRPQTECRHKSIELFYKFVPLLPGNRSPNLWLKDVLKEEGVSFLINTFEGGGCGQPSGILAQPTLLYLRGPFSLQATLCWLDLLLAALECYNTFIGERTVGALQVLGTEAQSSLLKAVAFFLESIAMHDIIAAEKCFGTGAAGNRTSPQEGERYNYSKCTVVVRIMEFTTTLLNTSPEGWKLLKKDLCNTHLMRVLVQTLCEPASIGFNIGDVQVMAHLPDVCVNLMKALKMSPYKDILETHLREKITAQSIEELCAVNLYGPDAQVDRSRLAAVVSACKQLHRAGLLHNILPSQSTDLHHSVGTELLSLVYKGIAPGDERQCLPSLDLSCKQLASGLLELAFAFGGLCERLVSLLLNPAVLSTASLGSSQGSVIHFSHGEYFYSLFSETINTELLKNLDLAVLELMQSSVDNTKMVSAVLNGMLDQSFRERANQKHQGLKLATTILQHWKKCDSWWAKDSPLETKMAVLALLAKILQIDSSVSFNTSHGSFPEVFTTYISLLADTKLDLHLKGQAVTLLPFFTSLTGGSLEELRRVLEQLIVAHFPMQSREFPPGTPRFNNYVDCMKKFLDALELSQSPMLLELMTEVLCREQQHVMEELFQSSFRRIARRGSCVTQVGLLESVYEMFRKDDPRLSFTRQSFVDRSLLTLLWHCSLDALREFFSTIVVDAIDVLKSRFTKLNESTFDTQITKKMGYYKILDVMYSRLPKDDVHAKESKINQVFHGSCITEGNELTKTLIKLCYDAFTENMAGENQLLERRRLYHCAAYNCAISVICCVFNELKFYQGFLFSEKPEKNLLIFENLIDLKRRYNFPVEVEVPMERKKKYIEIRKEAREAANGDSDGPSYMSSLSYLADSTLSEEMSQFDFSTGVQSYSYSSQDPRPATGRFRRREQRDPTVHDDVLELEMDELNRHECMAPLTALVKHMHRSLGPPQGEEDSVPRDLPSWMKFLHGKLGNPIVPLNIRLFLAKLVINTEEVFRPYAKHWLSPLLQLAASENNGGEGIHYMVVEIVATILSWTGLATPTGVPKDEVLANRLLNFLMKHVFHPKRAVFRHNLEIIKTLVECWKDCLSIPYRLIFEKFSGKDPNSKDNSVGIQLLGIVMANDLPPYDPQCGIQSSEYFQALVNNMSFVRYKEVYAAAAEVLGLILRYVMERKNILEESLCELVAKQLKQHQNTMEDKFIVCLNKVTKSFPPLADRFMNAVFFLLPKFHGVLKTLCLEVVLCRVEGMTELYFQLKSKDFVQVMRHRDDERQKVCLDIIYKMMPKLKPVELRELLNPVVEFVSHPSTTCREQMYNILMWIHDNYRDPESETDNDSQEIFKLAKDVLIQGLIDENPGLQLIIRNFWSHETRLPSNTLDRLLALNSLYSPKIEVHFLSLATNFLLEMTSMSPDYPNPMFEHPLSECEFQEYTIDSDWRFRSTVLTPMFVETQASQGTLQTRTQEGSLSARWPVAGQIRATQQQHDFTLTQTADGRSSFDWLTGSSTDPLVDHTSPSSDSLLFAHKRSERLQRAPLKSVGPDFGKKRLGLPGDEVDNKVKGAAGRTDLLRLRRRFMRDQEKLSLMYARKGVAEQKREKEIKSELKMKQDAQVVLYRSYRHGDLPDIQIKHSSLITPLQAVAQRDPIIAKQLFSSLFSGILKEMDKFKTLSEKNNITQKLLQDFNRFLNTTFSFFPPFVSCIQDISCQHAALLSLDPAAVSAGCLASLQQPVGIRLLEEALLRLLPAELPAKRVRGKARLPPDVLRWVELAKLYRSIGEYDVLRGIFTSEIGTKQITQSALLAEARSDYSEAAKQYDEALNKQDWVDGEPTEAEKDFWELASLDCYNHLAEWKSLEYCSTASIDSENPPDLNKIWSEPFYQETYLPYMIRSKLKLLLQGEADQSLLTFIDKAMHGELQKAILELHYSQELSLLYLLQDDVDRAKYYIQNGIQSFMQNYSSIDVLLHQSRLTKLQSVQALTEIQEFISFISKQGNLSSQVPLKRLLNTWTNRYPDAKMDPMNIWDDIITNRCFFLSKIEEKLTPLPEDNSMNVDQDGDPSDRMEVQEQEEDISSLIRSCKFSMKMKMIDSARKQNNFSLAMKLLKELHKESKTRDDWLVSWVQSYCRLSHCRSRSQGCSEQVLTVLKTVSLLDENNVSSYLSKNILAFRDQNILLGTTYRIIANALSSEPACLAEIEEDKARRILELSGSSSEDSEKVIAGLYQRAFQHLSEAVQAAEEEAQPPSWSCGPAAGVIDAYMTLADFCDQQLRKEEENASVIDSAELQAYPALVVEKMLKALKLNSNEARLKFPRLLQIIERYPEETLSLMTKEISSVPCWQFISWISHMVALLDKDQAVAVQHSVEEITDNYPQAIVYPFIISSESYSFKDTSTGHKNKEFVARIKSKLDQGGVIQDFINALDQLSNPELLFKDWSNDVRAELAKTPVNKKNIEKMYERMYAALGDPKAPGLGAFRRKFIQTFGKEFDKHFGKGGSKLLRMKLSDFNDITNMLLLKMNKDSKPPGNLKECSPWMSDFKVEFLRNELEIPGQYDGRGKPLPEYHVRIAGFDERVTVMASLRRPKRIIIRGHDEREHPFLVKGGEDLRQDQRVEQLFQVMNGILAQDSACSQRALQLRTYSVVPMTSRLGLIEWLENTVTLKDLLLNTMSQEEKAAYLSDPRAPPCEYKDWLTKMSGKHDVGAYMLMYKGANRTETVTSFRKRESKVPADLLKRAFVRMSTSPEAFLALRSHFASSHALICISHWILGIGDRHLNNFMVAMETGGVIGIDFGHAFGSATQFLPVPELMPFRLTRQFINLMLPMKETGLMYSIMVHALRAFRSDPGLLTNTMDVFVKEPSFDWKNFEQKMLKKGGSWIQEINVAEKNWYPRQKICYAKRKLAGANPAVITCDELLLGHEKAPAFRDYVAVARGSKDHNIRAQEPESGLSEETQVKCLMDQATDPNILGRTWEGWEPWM

Row | SMILES | IC50 (mTOR; [2]) [µM] | IC50 (mTOR; [3]) [µM] | IC50 (PI3K delta (PI3 Kd); Table 4) [µM] | IC50 (PI3K delta (PI3 Kd); Table 6) [µM] | IC50 [1, 4] [µM] | IC50 [1, 5] [µM]
1 | C[C@@H]1COCCN1c1nc(-c2ccc(NC(=O)NC3CC3)cc2)nc2c1CNC2 [Example 9, (R)-1-cyclopropyl-3-(4-(4-(3-methylmorpholino)-6,7-dihydro-5H-pyrrolo[3,4-d]pyrimidin-2-yl)phenyl)urea] | < 0.1 | < 0.1 | > 10 | > 10 | > 10 | > 10
2 | CNC(=O)Nc1ccc(-c2nc3c(c(N4CCOC[C@@H]4C)n2)CNCC3)cc1 [Example 10, (S)-1-methyl-3-(4-(4-(3-methylmorpholino)-5,6,7,8-tetrahydropyrido[4,3-d]pyrimidin-2-yl)phenyl)urea] | 0.1 to 1 | 0.1 to 1 | > 10 | > 10 | > 10 | > 10
3 | CCNC(=O)Nc1ccc(-c2nc3c(c(N4CCOCC4)n2)CNC3)cc1 [Example 14, 1-ethyl-3-(4-(4-morpholino-6,7-dihydro-5H-pyrrolo[3,4-d]pyrimidin-2-yl)phenyl)urea] |  |  | 1 to 10 | 1 to 10 | > 10 | > 10
4 | CCNC(=O)Nc1ccc(-c2nc3c(c(N4CCOC[C@@H]4C)n2)CCN(Cc2ccc(F)cc2)C3)cc1 [Example 31, (S)-1-ethyl-3-(4-(7-(4-fluorobenzyl)-4-(3-methylmorpholino)-5,6,7,8-tetrahydropyrido[3,4-d]pyrimidin-2-yl)phenyl)urea] | 0.1 to 1 | 1 to 10 | > 10 | > 10 | > 10 | > 10
5 | C[C@H]1COCCN1c1nc(-c2ccc(NC(=O)NCCCO)cc2)nc2c1CN(C)C2 [Example 51, (S)-1-(3-hydroxypropyl)-3-(4-(6-methyl-4-(3-methylmorpholino)-6,7-dihydro-5H-pyrrolo[3,4-d]pyrimidin-2-yl)phenyl)urea] | < 0.1 | < 0.1 |  |  | > 10 | > 10
6 | COCCCNC(=O)Nc1ccc(-c2nc3c(c(N4CCOC[C@@H]4C)n2)CN(C)C3)cc1 [Example 53, (S)-1-(3-methoxypropyl)-3-(4-(6-methyl-4-(3-methylmorpholino)-6,7-dihydro-5H-pyrrolo[3,4-d]pyrimidin-2-yl)phenyl)urea] | 0.1 to 1 | 0.1 to 1 |  |  | > 10 | > 10

Further lines, results first:

Row | IC50 (mTOR; [2]) [µM] | IC50 (mTOR; [3]) [µM] | IC50 (PI3K delta (PI3 Kd); Table 4) [µM] | IC50 (PI3K delta (PI3 Kd); Table 6) [µM] | IC50 [1, 4] [µM] | IC50 [1, 5] [µM] | SMILES
7 | < 0.1 | < 0.1 | > 10 | > 10 | > 10 | > 10 | C[C@H]1COCCN1c1nc(-c2ccc(NC(=O)NC3CC3)cc2)nc2c1CNC2 [Example 3, (S)-1-cyclopropyl-3-(4-(4-(3-methylmorpholino)-6,7-dihydro-5H-pyrrolo[3,4-d]pyrimidin-2-yl)phenyl)urea]
8 | < 0.1 | < 0.1 | 1 to 10 | 1 to 10 | > 10 | > 10 | CNC(=O)Nc1ccc(-c2nc3c(c(N4CCOC[C@@H]4C)n2)CNC3)cc1 [Example 4, (S)-1-methyl-3-(4-(4-(3-methylmorpholino)-6,7-dihydro-5H-pyrrolo[3,4-d]pyrimidin-2-yl)phenyl)urea]
9 | 0.1 to 1 | 0.1 to 1 | 1 to 10 | 1 to 10 | > 10 | > 10 | C[C@H]1COCCN1c1nc(-c2ccc(NC(N)=O)cc2)nc2c1CN(C=O)C2 [Example 6, (S)-1-(4-(6-formyl-4-(3-methylmorpholino)-6,7-dihydro-5H-pyrrolo[3,4-d]pyrimidin-2-yl)phenyl)urea]
10 | < 0.1 | < 0.1 | > 10 | > 10 | > 10 | > 10 | CCNC(=O)Nc1ccc(-c2nc3c(c(N4CCOC[C@@H]4C)n2)CNC3)cc1 [Example 7, (S)-1-ethyl-3-(4-(4-(3-methylmorpholino)-6,7-dihydro-5H-pyrrolo[3,4-d]pyrimidin-2-yl)phenyl)urea]
